Patent publication US20110053770A1, “SUBSTITUTED AMINOTHIAZOLES AND THEIR USE AS FUNGICIDES” (BAYER CROPSCIENCE AG, priority 2009, published 2011)
Marks after values point to notes of the source that are not given here.

Assay: logP by HPLC on reversed-phase columns (C 18), EEC directive 79/831 Annex V.A8
Type: physicochemical
Details: for log P (**) / log P (***): LC-MS; for log P (**) / log P (*): acidic range; for log P (**): pH 2.7, 0.1% aqueous formic acid and acetonitrile; for log P (***): neutral range, pH 7.8, 0.001 molar aqueous ammonium bicarbonate and acetonitrile; for log P (*): pH 2.3, 0.1% aqueous phosphoric acid and acetonitrile
Method: Calibration was carried out using unbranched alkan-2-ones (having from 3 to 16 carbon atoms) with known logP values (the logP values were determined by the retention times using linear interpolation between two successive alkanones).

| SMILES | log P (**) | log P (***) | log P (*) |
| --- | --- | --- | --- |
| COc1ccc(-c2csc(N=C3CCCCN3)n2)cc1OC [compound 27, 4-(3,4-dimethoxyphenyl)-N-[(2E/Z)-piperidin-2-ylidene]-1,3-thiazole-2-amine] | 1.35 | 2.36 | 1.35 |
| Fc1ccc(Oc2ccccc2-c2csc(N=C3CCCCN3)n2)c(F)c1F [compound 77, N-[(2E/Z)-piperidin-2-ylidene]-4-[2-(2,3,4-trifluorophenoxy)phenyl]-1,3-thiazole-2-amine] | – | 4.17 | 2.01 |
| Fc1cccc(Oc2ccccc2-c2csc(N=C3CCCCN3)n2)c1 [compound 83, 4-[2-(3-fluorophenoxy)phenyl]-N-[(2E/Z)-piperidin-2-ylidene]-1,3-thiazole-2-amine] | – | – | 1.95* |
| Clc1cc(Cl)cc(Cc2ccccc2-c2csc(N=C3CCCCN3)n2)c1 [compound 89, 4-[2-(3,5-dichlorobenzyl)phenyl]-N-[(2E/Z)-piperidin-2-ylidene]-1,3-thiazole-2-amine] | 2.43 | 5.35 | – |
| Clc1cccc(-c2csc(N=C3CCCCN3)n2)c1Cl [compound 24, 4-(2,3-dichlorophenyl)-N-[(2E/Z)-piperidin-2-ylidene]-1,3-thiazole-2-amine] | 1.81 | 3.72 | 1.81 |
| CC(=O)N1CCCCC1=Nc1nc(-c2cccc(Cl)c2Cl)cs1 [compound 36, 1-[(2E/Z)-2-{[4-(2,3-dichlorophenyl)-1,3-thiazol-2-yl]imino}piperidin-1-yl]ethanone] | 4.03 | 4.02 | 4.03 |
